Values of other authors as cited in patent publication US6441198B1, “Podophyllotoxin dimer as DNA topoisomerase II inhibitors, and a process for the preparation therefore” (Council of Scientific and Industrial Research, priority 2000, dated 2002).

Columns and labels:
[1] = tested on: cellular protein-DNA complex formation; details: relative to etoposide
[2] = tested on: human DNA topoisomerase II; details: relative to etoposide

In the case of `COc1cc(C2c3cc4c(cc3C(Nc3ccc(F)cc3)C3COC(=O)C23)OCO4)cc(OC)c1O` (stereo not drawn) [NPF, 4′-0-demethyl-4β-(4″-fluoroanilino)-4-desoxypodophyllotoxin], the “activity in cellular protein-DNA complex formation compared to etoposide” value [1] is given as 113 times, the “potency in inhibiting human DNA topoisomerase II compared to etoposide” value [2] is given as 10 fold and the “activity in in vitro human tumour cell lines assay” value (human tumour cell lines) is given as “very active”.
